Data on seven molecules can be found in patent publication US5318776A, “Composition for preventing graying of the hair” (priority 1988, dated 1994).

Data set [1] deals with grayed hair (melanocytes). Description: Inhibition of generation of grayed hair in stressed black mice. The format is in vivo. As to conditions: Table V, 0.05% test compound in hair tonic, 0.1 ml twice a day, 1 month, control 17.1. On the procedure: It is known that stress is one of the causes of graying of the hair. […] Moreover, the stability of the composition with time was also estimated.
(§1) One month thereafter, regenerated hair was collected from a constant area and the rate (%) of generated grayed hair to all the number of hair collected was estimated. In addition, the aforementioned hair tonic type preparations were allowed to stand at 30° C. for 3 months and the residual amount of the test compounds therein was examined by liquid chromatography as well as the degree of change in smell was also evaluated by means of sensory test.
(§2) One month thereafter, regenerated hair was collected from a constant area and the rate (%) of generated grayed hair to all the number of hair collected was estimated. In addition, the aforementioned compositions were allowed to stand at 30° C. for 3 months and the residual amount of the test compounds therein was examined by liquid chromatography as well as the degree of change in smell was also evaluated by sensory test. […] In addition, the abbreviation P means the averaged added molar number of ethylene oxide residues.

Data set [2] is described as follows: Sensory test: degree of change in smell after standing at 30° C. for 3 months.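 On Stability S.E. (Sensory Evaluation): double circle means no smell deterioration on a four-grade scale.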 The format is physicochemical. To be noted: for Stability S.E. (Sensory Evaluation): Table V, 0.05% in hair tonic, 30° C., 3 months. Here is the method:
as §1, §2

Data set [3] is described as follows: Stability: residual amount of test compound after standing at 30° C. for 3 months, liquid chromatography. As to conditions: for remaining at 2190 h: read-out: Stability Residue(%). The format is physicochemical. On the procedure: as §1, §2
Another data set relates to grayed hair. Nature of the data set: Half-Head technique application to scalp of men having grayed hair. In kind it is in vivo, men (40 to 60 years old). Here is the method:
Then, the effects of preventing graying of the hair and restoring grayed hair to its natural color were evaluated by comparing the conditions of the portions observed before and after the application of Samples and the results obtained were listed in the following Table VIII. […]
Then, the effectiveness of the hair cream of the invention and that of Comp.

Setting [4] is: hair tonic, Table V, 0.05% in hair tonic, 30° C., 3 months.
[5] abbreviates: Example 6, hair tonic as in Example 3.
The mark [6] stands for this setting: Example 7, hair cream as in Example 5.

With `CCCCOc1nc2c(N)ncnc2n1[C@@H]1O[C@@H]2COP(=O)(O)O[C@H]2[C@H]1O` [8-butoxy cAMP-Na], the “Rate of Grayed Hair (%)” value in data set [1] was 6.0%. The “quality deterioration such as giving out of bad smell” value (shortened to “quality deterioration such”) in data set [2] (Example 6, hair tonic) is listed as “did not cause quality deterioration such as giving out of bad smell”. For the same molecule, the “Stability S.E. (Sensory Evaluation)” value in data set [2] is reported as “.circleincircle”. Further, the “stability (in words)” value in data set [3] (Example 6, hair tonic) is on record as “stable”. Besides, in data set [3] (setting [4]), the remaining at 2190 h stood at 99.9%. In the data set on grayed hair (setting [5]), the “effect of preventing graying of the hair and restoring grayed hair to its natural color (in words)” value (from here on “effect”) is “the same effect of preventing graying of the hair and restoring grayed hair to its natural color as in Example 3”.
Take `CCCCNc1nc2c(N)ncnc2n1[C@@H]1O[C@@H]2COP(=O)(O)O[C@H]2[C@H]1O` [8-butylamino cAMP-Na]: the “Rate of Grayed Hair (%)” value in data set [1] was found to be 7.1%. Further, the “quality deterioration such” value in data set [2] (Example 7, hair cream) was “did not cause quality deterioration such as giving out of bad smell”. Moreover, the “Stability S.E. (Sensory Evaluation)” value in data set [2] was “.circleincircle”. Also, the “stability (in words)” value in data set [3] (Example 7, hair cream) is recorded as “stable”. For the same molecule, the remaining at 2190 h in data set [3] (setting [4]) came to 99.5%. Also, in the data set with grayed hair (setting [6]), the “effect” value is “the same effect of preventing graying of the hair and restoring grayed hair to its natural color as in Example 5”.
Regarding `CCCCSc1nc2c(N)ncnc2n1[C@@H]1O[C@@H]2COP(=O)(O)O[C@H]2[C@H]1O` [8-butylthio cAMP-Na], the “Rate of Grayed Hair (%)” value in data set [1] is given as 6.5%. Further, in data set [2] (Example 7, hair cream), the “quality deterioration such” value is given as “did not cause quality deterioration such as giving out of bad smell”. Further, the “Stability S.E. (Sensory Evaluation)” value in data set [2] is recorded as “.circleincircle”. Besides, in data set [3] (Example 7, hair cream), the “stability (in words)” value is reported as “stable”. The remaining at 2190 h in data set [3] (setting [4]) was 99.9%. The “effect” value with grayed hair (setting [6]) was “the same effect of preventing graying of the hair and restoring grayed hair to its natural color as in Example 5”.
`CCOc1nc2c(N)ncnc2n1[C@@H]1O[C@@H]2COP(=O)(O)O[C@H]2[C@H]1O` [8-ethoxy cAMP-Na]: the “Rate of Grayed Hair (%)” value in data set [1] amounted to 5.3%. The “quality deterioration such” value in data set [2] (Example 6, hair tonic) was “did not cause quality deterioration such as giving out of bad smell”. The “Stability S.E. (Sensory Evaluation)” value in data set [2] is listed as “.circleincircle”. In data set [3] (Example 6, hair tonic), the “stability (in words)” value is recorded as “stable”. For the same molecule, the remaining at 2190 h in data set [3] (setting [4]) stood at 99.8%. The “effect” value with grayed hair (setting [5]) was “the same effect of preventing graying of the hair and restoring grayed hair to its natural color as in Example 3”.
On to `Nc1ncnc2c1nc(SCCO)n2[C@@H]1O[C@@H]2COP(=O)([O-])O[C@H]2[C@H]1O.[Na+]` [8-ethylhydroxythio cAMP-Na], for which the “Rate of Grayed Hair (%)” value in data set [1] was 5.5%. Further, the “quality deterioration such” value in data set [2] (Example 6, hair tonic) is reported as “did not cause quality deterioration such as giving out of bad smell”. The “Stability S.E. (Sensory Evaluation)” value in data set [2] is on record as “.circleincircle”. In addition, in data set [3] (Example 6, hair tonic), the “stability (in words)” value is listed as “stable”. For the same molecule, the “Stability Residue(%)” value in data set [3] (Table V, 0.05% in hair tonic, 30° C., 3 months, 131400 min) is 99.6%. The “effect” value in the data set with grayed hair (setting [5]) is “the same effect of preventing graying of the hair and restoring grayed hair to its natural color as in Example 3”.
With `Nc1ncnc2c1nc(O)n2[C@@H]1O[C@@H]2COP(=O)(O)O[C@H]2[C@H]1O` [8-hydroxy cAMP-Na], the “Rate of Grayed Hair (%)” value in data set [1] is listed as 5.6%. For the same molecule, the “quality deterioration such” value in data set [2] (Example 6, hair tonic) was “did not cause quality deterioration such as giving out of bad smell”. The “Stability S.E. (Sensory Evaluation)” value in data set [2] is “.circleincircle”. For the same molecule, the “stability (in words)” value in data set [3] (Example 6, hair tonic) is reported as “stable”. The remaining at 2190 h in data set [3] (setting [4]) worked out at 99.7%. In addition, in the data set with grayed hair (setting [5]), the “effect” value was “the same effect of preventing graying of the hair and restoring grayed hair to its natural color as in Example 3”.
Take `COc1nc2c(N)ncnc2n1[C@@H]1O[C@@H]2COP(=O)(O)O[C@H]2[C@H]1O` [8-methoxy cAMP-Na]: the “Rate of Grayed Hair (%)” value in data set [1] is 4.5%. Moreover, in data set [2], the “Stability S.E. (Sensory Evaluation)” value is given as “.circleincircle”. Besides, the remaining at 2190 h in data set [3] (setting [4]) is 99.9%. Further, in the data set with grayed hair (Examples 3 to 5, Half-Head, men, 3 months), the “effect” value was “remarkable effects of preventing graying of the hair and restoring grayed hair to its natural color”.
